In brackets after ≈: the same amount, converted by molar mass. Where two headings read alike, the source gives them in different places.
Legend:
MV-4-11 xenograft = details: preclinical, no reference given; cited from earlier work
[1] = preclinical, no reference given, cited from earlier work
MV-4-11 = details: ref data on file, Fosun Pharma; cited from earlier work
[2] = Plasma pharmacokinetics of FN-1501 and metabolite M3 in patients (LC/MS-MS, noncompartmental); format: in vivo, human; details: for AUClast / AUC∞ / CL / Cmax / MRT∞ / Vss / Vz / t1/2 / tmax: mean; for Clearance: discussion; for Css,u: 260 mg
Description: For PK assessment, blood samples were collected pre-dose and 0.083, 0.25, 0.5, 1, 2, 4, 6, 8, 12, 24, and 48 h post-dose on Cycle 1, Day 1, and pre-dose on Cycle 2, Day 1. Plasma concentrations of FN-1501 and its metabolite M3 were analyzed at KCAS in Shawnee, KS, using a validated liquid chromatography/tandem mass spectrometry method. Primary pharmacokinetic (PK) endpoints were derived from FN-1501 and M3 concentration–time profiles and were analyzed using standard noncompartmental methods of analysis (Phoenix version 8).

CN1CCN(Cc2ccc(NC(=O)c3[nH]ncc3Nc3ncnc4[nH]ccc34)cc2)CC1 [FN-1501]
Dose at which tumor growth reached stasis (MV-4-11 xenograft): 5 mg/kg
Css,u in mice ([1]; 5 mg): roughly 5 ng/mL
Css,u in mice ([1]; 20 mg): ~50 ng/mL
IC50 (MV-4-11): 2.6 ng/mL (≈ 6.03 nM)
AUClast ([2]; 2.5 mg IV): 29.4 ± 11.9 ng·h/mL
AUC∞ ([2]; 2.5 mg IV): 32.4 ± 13.1 ng·h/mL
CL ([2]; 2.5 mg IV): 85.1 ± 26.8 L/h
Cmax ([2]; 2.5 mg IV): 12.0 ± 1.42 ng/mL
MRT∞ ([2]; 2.5 mg IV): 11.7 ± 4.59 h
Vss ([2]; 2.5 mg IV): 913 ± 206 L
Vz ([2]; 2.5 mg IV): 1510 ± 421 L
t1/2 ([2]; 2.5 mg IV): 12.8 ± 3.5 h
tmax ([2]; 2.5 mg IV): 1.2 ± 0.10 h
AUClast ([2]; 5 mg IV): 52.1 ± 18.2 ng·h/mL
AUC∞ ([2]; 5 mg IV): 56.5 ± 18.2 ng·h/mL
CL ([2]; 5 mg IV): 93.9 ± 25.2 L/h
Cmax ([2]; 5 mg IV): 25.5 ± 17.3 ng/mL
MRT∞ ([2]; 5 mg IV): 13.7 ± 3.74 h
Vss ([2]; 5 mg IV): 1320 ± 619 L
Vz ([2]; 5 mg IV): 2570 ± 932 L
t1/2 ([2]; 5 mg IV): 18.6 ± 2.34 h
tmax ([2]; 5 mg IV): 1.1 ± 0.02 h
AUClast ([2]; 10 mg IV): 119 ± 32.6 ng·h/mL
AUC∞ ([2]; 10 mg IV): 129 ± 41.3 ng·h/mL
CL ([2]; 10 mg IV): 84.7 ± 32.4 L/h
Cmax ([2]; 10 mg IV): 36.9 ± 17.5 ng/mL
MRT∞ ([2]; 10 mg IV): 12.5 ± 2.84 h
Vss ([2]; 10 mg IV): 1110 ± 664 L
Vz ([2]; 10 mg IV): 1720 ± 925 L
t1/2 ([2]; 10 mg IV): 13.7 ± 2.68 h
tmax ([2]; 10 mg IV): 1.2 ± 0.15 h
AUClast ([2]; 15 mg IV): 138 ± 10.8 ng·h/mL
AUC∞ ([2]; 15 mg IV): 153 ± 8.45 ng·h/mL
CL ([2]; 15 mg IV): 98.5 ± 5.29 L/h
Cmax ([2]; 15 mg IV): 35.6 ± 2.15 ng/mL
MRT∞ ([2]; 15 mg IV): 16.1 ± 2.64 h
Vss ([2]; 15 mg IV): 1600 ± 331 L
Vz ([2]; 15 mg IV): 2370 ± 536 L
t1/2 ([2]; 15 mg IV): 16.6 ± 3 h
tmax ([2]; 15 mg IV): 1.2 ± 0.14 h
AUClast ([2]; 22.5 mg IV): 251 ± 87.8 ng·h/mL
AUC∞ ([2]; 22.5 mg IV): 239 ± 55.4 ng·h/mL
CL ([2]; 22.5 mg IV): 96.9 ± 22.5 L/h
Cmax ([2]; 22.5 mg IV): 65.8 ± 24.5 ng/mL
MRT∞ ([2]; 22.5 mg IV): 16.4 ± 1.01 h
Vss ([2]; 22.5 mg IV): 1600 ± 466 L
Vz ([2]; 22.5 mg IV): 2570 ± 663 L
t1/2 ([2]; 22.5 mg IV): 18.3 ± 0.49 h
tmax ([2]; 22.5 mg IV): 1.2 ± 0.19 h
AUClast ([2]; 30 mg IV): 297 ± 55.8 ng·h/mL
AUC∞ ([2]; 30 mg IV): 341 ± 47.1 ng·h/mL
CL ([2]; 30 mg IV): 89.1 ± 13.3 L/h
Cmax ([2]; 30 mg IV): 87.8 ± 37.5 ng/mL
MRT∞ ([2]; 30 mg IV): 13.4 ± 8.49 h
Vss ([2]; 30 mg IV): 1130 ± 619 L
Vz ([2]; 30 mg IV): 1500 ± 786 L
t1/2 ([2]; 30 mg IV): 12.4 ± 7.43 h
tmax ([2]; 30 mg IV): 1.1 ± 0.11 h
AUClast ([2]; 40 mg IV): 437 ± 77.2 ng·h/mL
AUC∞ ([2]; 40 mg IV): 499 ± 122 ng·h/mL
CL ([2]; 40 mg IV): 83.6 ± 18.6 L/h
Cmax ([2]; 40 mg IV): 128 ± 41.9 ng/mL
MRT∞ ([2]; 40 mg IV): 18.3 ± 6.19 h
Vss ([2]; 40 mg IV): 1450 ± 185 L
Vz ([2]; 40 mg IV): 2160 ± 195 L
t1/2 ([2]; 40 mg IV): 18.7 ± 5.68 h
tmax ([2]; 40 mg IV): 1.1 ± 0.044 h
AUClast ([2]; 54 mg IV): 773 ± 180 ng·h/mL
AUC∞ ([2]; 54 mg IV): 868 ± 181 ng·h/mL
CL ([2]; 54 mg IV): 63.9 ± 12.4 L/h
Cmax ([2]; 54 mg IV): 323 ± 55.6 ng/mL
MRT∞ ([2]; 54 mg IV): 16.9 ± 7.34 h
Vss ([2]; 54 mg IV): 1080 ± 516 L
Vz ([2]; 54 mg IV): 1820 ± 740 L
t1/2 ([2]; 54 mg IV): 19.6 ± 6.44 h
tmax ([2]; 54 mg IV): 1.1 ± 0.05 h
AUClast ([2]; 72 mg IV): 742 ± 275 ng·h/mL
AUC∞ ([2]; 72 mg IV): 823 ± 292 ng·h/mL
CL ([2]; 72 mg IV): 94.2 ± 28.8 L/h
Cmax ([2]; 72 mg IV): 161 ± 67.7 ng/mL
MRT∞ ([2]; 72 mg IV): 16.8 ± 1.12 h
Vss ([2]; 72 mg IV): 1580 ± 489 L
Vz ([2]; 72 mg IV): 2370 ± 833 L
t1/2 ([2]; 72 mg IV): 17.2 ± 1.58 h
tmax ([2]; 72 mg IV): 1.3 ± 0.24 h
AUClast ([2]; 96 mg IV): 1420 ± 236 ng·h/mL
AUC∞ ([2]; 96 mg IV): 1650 ± 229 ng·h/mL
CL ([2]; 96 mg IV): 59.1 ± 8.20 L/h
Cmax ([2]; 96 mg IV): 494 ± 289 ng/mL
MRT∞ ([2]; 96 mg IV): 15.4 ± 6.58 h
Vss ([2]; 96 mg IV): 921 ± 425 L
Vz ([2]; 96 mg IV): 1410 ± 682 L
t1/2 ([2]; 96 mg IV): 16.1 ± 6.28 h
tmax ([2]; 96 mg IV): 1.1 ± 0.13 h
AUClast ([2]; 128 mg IV): 1730 ± 850 ng·h/mL
AUC∞ ([2]; 128 mg IV): 1980 ± 1120 ng·h/mL
CL ([2]; 128 mg IV): 79.9 ± 4.21 L/h
Cmax ([2]; 128 mg IV): 533 ± 344 ng/mL
MRT∞ ([2]; 128 mg IV): 18.1 ± 5.53 h
Vss ([2]; 128 mg IV): 1320 ± 473 L
Vz ([2]; 128 mg IV): 1790 ± 366 L
t1/2 ([2]; 128 mg IV): 17.8 ± 7.00 h
tmax ([2]; 128 mg IV): 1.1 ± 0.11 h
AUClast ([2]; 170 mg IV): 3340 ± 1500 ng·h/mL
AUC∞ ([2]; 170 mg IV): 3760 ± 1980 ng·h/mL
CL ([2]; 170 mg IV): 56.5 ± 31.5 L/h
Cmax ([2]; 170 mg IV): 955 ± 330 ng/mL
MRT∞ ([2]; 170 mg IV): 15.8 ± 7.89 h
Vss ([2]; 170 mg IV): 757 ± 218 L
Vz ([2]; 170 mg IV): 1120 ± 419 L
t1/2 ([2]; 170 mg IV): 15.0 ± 3.64 h
tmax ([2]; 170 mg IV): 1.3 ± 0.26 h
Clearance ([2]; 170 mg): 50 L/h
AUClast ([2]; 226 mg IV): 5620 ± 1390 ng·h/mL
AUC∞ ([2]; 226 mg IV): 6070 ± 1670 ng·h/mL
CL ([2]; 226 mg IV): 39.4 ± 0.17 L/h
Cmax ([2]; 226 mg IV): 1180 ± 232 ng/mL
MRT∞ ([2]; 226 mg IV): 15.2 ± 3.92 h
Vss ([2]; 226 mg IV): 569 ± 30.8 L
Vz ([2]; 226 mg IV): 787 ± 139 L
t1/2 ([2]; 226 mg IV): 14.2 ± 2.2 h
tmax ([2]; 226 mg IV): 1.2 ± 0.02 h
Clearance ([2]; 226 mg): 38 L/h
Css,u ([2]; 48 h dosing interval): 37 ng/mL
Css,u ([2]; 72 h dosing interval): 25 ng/mL
AUC increase with dose ([2]; 2.5 to 226 mg): greater than dose-proportional
Cmax increase with dose ([2]; 2.5 to 226 mg): roughly dose-proportional
Drug concentration at end of dosing interval ([2]; 48 h post-dose): approximately 20 ng/mL
